Measurements published in patent US8772248B2, “Drug delivery system” (Keele University, priority 2004, dated 2014).
Peptide text beside a SMILES is read from it.

Assays:
PepT1 [1] = target: T1, PepT1 (Oryctolagus cuniculus, UniProt P36836); test: Efflux / trans-stimulation assay in PepT1-expressing oocytes injected with [3H]-D-Phe-L-Gln; assay type: cell-based
T1 construct: expressed in transfected cells
T1 sequence (P36836 1-707): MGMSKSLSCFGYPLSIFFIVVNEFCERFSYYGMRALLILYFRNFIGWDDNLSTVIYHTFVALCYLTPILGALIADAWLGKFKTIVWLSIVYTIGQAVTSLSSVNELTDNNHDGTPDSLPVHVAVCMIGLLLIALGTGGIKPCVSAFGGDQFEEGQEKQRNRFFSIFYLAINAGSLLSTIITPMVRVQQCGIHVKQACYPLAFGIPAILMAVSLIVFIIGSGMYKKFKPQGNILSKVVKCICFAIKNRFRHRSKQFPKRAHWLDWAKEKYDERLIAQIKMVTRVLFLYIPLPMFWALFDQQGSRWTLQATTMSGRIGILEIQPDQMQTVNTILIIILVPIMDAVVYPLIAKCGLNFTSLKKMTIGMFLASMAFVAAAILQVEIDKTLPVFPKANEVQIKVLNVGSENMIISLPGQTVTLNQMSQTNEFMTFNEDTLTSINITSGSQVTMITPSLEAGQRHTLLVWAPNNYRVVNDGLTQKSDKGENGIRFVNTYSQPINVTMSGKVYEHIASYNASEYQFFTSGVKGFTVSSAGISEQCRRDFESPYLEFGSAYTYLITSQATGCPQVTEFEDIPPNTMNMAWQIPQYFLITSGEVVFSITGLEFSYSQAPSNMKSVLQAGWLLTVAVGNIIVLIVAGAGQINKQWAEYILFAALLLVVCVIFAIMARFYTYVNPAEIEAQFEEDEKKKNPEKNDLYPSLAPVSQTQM
Description: Efflux experiments were performed as described in Temple et al., J. Biol. Chem., 1998, 273, 20-22. Briefly, PepT1-expressing oocytes were micro-injected with 4.6 nl of [^3H]-D-Phe-L-Gln (17.4 Ci/mmole) and allowed to recover for 15 minutes. 5 oocytes were incubated in […] uptake solution (pH 5.5) containing a potential substrate (i.e. a thiodipeptide-drug analogue conjugate) at 10 mM, with a negative control (i.e. uptake solution pH 5.5) and a positive control (i.e. 20 mM dipeptide Gly-Gln in pH 5.5 uptake solution). After 90 minutes incubation at room temperature, 50 μL of the medium was removed and placed in a scintillation vial for counting. The oocytes were washed sequentially five times in 1 mL of ice-cold uptake medium, then lysed individually with 100 μL 2% (w/v) SDS in vials, and liquid scintillation counted.
Efflux of the radiolabelled dipeptide is a positive indication of active transport via PepT1.
In the assays carried out, the dipeptide Gly-Gln (which is known to be transported by PepT1) caused about 30% of labelled D-Phe-L-Gln to remain in the oocytes. At the same concentration, the test substrates (the conjugates being tested) are assessed as follows:—
<(measureable efflux, but less transport than Gly-Gln control, with ≧50% of D-Phe-L-Gln remaining)
=(efflux similar to the effect of Gly-Gln, i.e. 25-50% of labelled D-Phe-L-Gln remaining)
>(more efflux than Gly-Gln, i.e. <25% of labelled D-Phe-L-Gln remaining)
There are no reports in the literature of thiodipeptides attached to drugs or drug analogues, and therefore no examples of such conjugates being actively transported.

rats = test: Single dose toxicity study in rat; assay type: in vivo; conditions: single oral dose 700 mg/kg
Description: Toxicity testing required about 5 g of the thiodipeptide, Ala-ΨS-Ser.tfa (trifluoroacetate salt), which was delivered to rats as test subjects.
Single oral dose of 700 mg/kg to 5 males and 5 females on day 1.
Test Substance Formulation: The dose formulation was successfully prepared using physiological saline as the vehicle. The concentration of the test substance was 140 mg/ml, dosed at a volume of 5 ml/kg, resulting in a dose of 700 mg/kg.

PepT1 [2] = target: T2, PepT1 (Rattus norvegicus, UniProt P51574); test: In vivo transport across the gut wall, rat jejenum, HPLC analysis; conditions: 1 mM
T2 construct: using rat jejenum; from tissue; host or cells: rat jejunum
T2 sequence (P51574 1-710): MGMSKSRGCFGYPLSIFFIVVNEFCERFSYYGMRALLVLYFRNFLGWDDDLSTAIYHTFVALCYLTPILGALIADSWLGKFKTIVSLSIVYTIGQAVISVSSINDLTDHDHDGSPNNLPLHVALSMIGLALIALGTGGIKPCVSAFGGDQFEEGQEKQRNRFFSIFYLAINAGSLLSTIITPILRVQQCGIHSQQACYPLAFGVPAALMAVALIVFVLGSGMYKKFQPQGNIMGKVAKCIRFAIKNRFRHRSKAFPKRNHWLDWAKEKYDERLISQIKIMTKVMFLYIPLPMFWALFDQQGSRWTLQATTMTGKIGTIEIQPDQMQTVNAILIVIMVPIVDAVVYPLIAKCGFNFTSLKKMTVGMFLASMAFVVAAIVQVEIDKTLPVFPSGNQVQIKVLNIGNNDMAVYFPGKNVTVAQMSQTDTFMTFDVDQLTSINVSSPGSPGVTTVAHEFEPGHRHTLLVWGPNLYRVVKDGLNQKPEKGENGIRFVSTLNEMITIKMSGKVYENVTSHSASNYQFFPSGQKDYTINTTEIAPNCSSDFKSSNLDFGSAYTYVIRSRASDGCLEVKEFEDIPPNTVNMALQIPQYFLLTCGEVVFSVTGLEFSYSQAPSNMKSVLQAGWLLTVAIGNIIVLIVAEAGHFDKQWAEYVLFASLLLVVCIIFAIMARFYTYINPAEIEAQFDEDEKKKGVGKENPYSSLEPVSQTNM
Text: (§1) In vivo transport experiments, using the methodology described in Lister et al. (J. Physiol., 1995, 484.1, 173-182), were used to investigate the importance of the thio group in the compounds according to the invention during transport of thiopeptides across the gut wall. […] For the purposes of this experiment, this thiopeptide was not conjugated to a drug analogue molecule. Then, using rat jejenum, they carried out direct measurements of transport of this test thiopeptide across the gut wall. […]

PepT1 [3] = test: as above
Text: as §1

PepT1 [4] = target: T1, PepT1; test: Uptake of [3H]-D-Phe-L-Gln in oocytes in competition with test compound (binding to PepT1)
Description: Uptake of the radiolabelled dipeptide [^3H]-D-Phe-L-Gln (17.4 Ci/mmole, custom synthesised, Cambridge Research Biochemicals, Stockton-on-Tees, UK) in competition with the compounds to be tested, was performed as previously described (Meredith et al. J. Physiol., 1998, 512, 629-634). Briefly, 5 oocytes were incubated at room temperature in 100 μL of uptake medium (95 mM NaCl, 2 mM KCl, 1 mM CaCl2, 0.42 mM MgCl2, 10 mM Tris/Mes pH 5.5) with tracer (0.4 μM) [^3H]-D-Phe-L-Gln with or without a test compound at the appropriate concentration. After incubation for one hour, the oocytes were washed sequentially five times in 1 mL of ice-cold uptake medium, then lysed individually with 100 μL 2% (w/v) SDS in vials, and liquid scintillation counted.
Quantitative binding data has been produced for a large number of thiodipeptide carriers with attached drug surrogates using the methodology described in Meredith et al., 1998, discussed supra, and is shown in Table 2 below, and in FIG. 7. Each of the thiopeptide carrier molecules shown is in accordance with the present invention, with each compound comprising a serine amino acid side chain group on the second amino acid residue.

Resistance to hydrolysis = assay type: in vitro ADME

With `NCC(=O)N[C@@H](CCC(N)=O)C(=O)O` [Gly-Gln] (H-Gly-Gln-OH) the “cpm remaining in oocytes” value (PepT1 [1]; 10 mM, average from 5 experiments) was 1347 (+/−126) cpm, the efflux (PepT1 [1]; at 10 mM) was 72% and the “labelled D-Phe-L-Gln remaining in the oocytes” value (PepT1 [1]; positive control Gly-Gln, pH 5.5, 90 minutes) was “about 30%”.
With `CC(N)C(=S)N[C@@H](CO)C(=O)O.O=C(O)C(F)(F)F` (stereo partly shown) [Ala-ΨS-Ser.tfa] the Intercurrent deaths (rats; 15 days) was “no intercurrent deaths”, the Clinical observations (rats; daily for 15 days) was “no treatment related findings” and the Bodyweights (rats; day 15) was “All animals had gained weight”. For the same molecule, the “Macroscopic findings at scheduled termination” value (rats; day 15) was “no macroscopic findings”.
For `C[C@H](NC(=S)[C@@H](N)Cc1ccccc1)C(=O)O` [thiopeptide analogue of L-Phe-L-Ala, Phe-ΨS-Ala], the transport rate (PepT1 [2]) was 3.09 (+/−0.047) micromol/min/g of whole dry intestine, the “transport rate relative to control dipeptide D-Phe-L-Gln” value (PepT1 [2]) was “about 13 times” and the “resistance to peptidases of the small intestine” value (PepT1 [3]) was “resistant to the peptidases”.
With `CC(N)C(=S)NC(COCc1ccccc1)C(=O)O` [D-Ala-ΨS-Ser(OBn)] the “substrate for PepT1” value (PepT1 [4]) was “substrate for PepT1”, the Ki (PepT1 [4]; competition with 0.4 μM [3H]-D-Phe-L-Gln, oocytes, pH 5.5, one hour) was 1070 µM and the resistance to hydrolysis (Resistance to hydrolysis) was “more hydrolysis resistant than its corresponding L-isomer”.
